Entries after “also recorded” stand apart in the source; their conditions may differ. Like-named read-outs stand apart in the source and are kept apart here. Values belong to the molecule of their own block, whether it stands above or below them.
Experiments:
[1] = Pharmacokinetics of flumatinib and M1 in SD rats with or without isavuconazole; assay type: in vivo, Sprague-Dawley male rats; settings: for AUC(0-inf) / AUC(0-t) / Cmax / Tmax / half-life / CL/F / MRT last / MRT inf: male, Sprague-Dawley, rat, plasma, po, 60 mg/kg; for CL/F: read-out: CLz/F (converted); for MRT last: read-out: MRT0→t; for MRT inf: read-out: MRT0→∞
Method: Quantification of the analytes was made by using a Waters XEVO TQS triple quadruple mass spectrometer with a multiple reaction monitoring (MRM) in positive ion mode. The mobile phase was consisted of 0.1% formic acid aqueous solution (A) and acetonitrile (B) at a flow rate of 0.4 mL/min. An elution program of 90% A (0–0.5 min), 90%–10% A (0.5–1.0 min), 10% A (1–1.5 min), 10%–90% A (1.5–1.6 min) and 90% A (1.6–2 min) was performed. The whole elution took 2 min. During the analysis, the temperature of the column and autosampler rack was controlled at 40°C and 10°C, respectively.
Sprague–Dawley male rats (SD male rats, 200 ± 20 g) were purchased from the Animal Experimental Center of The First Affiliated Hospital of Wenzhou Medical University (Zhejiang, China). […] The rats in both groups started fasting for 12 h ahead of the experiment, but were free to water. […] Tail vein blood samples were collected from rats in both groups at multiple time points (0.67, 1, 1.5, 2, 3, 4, 6, 8, 12, and 24 h). Subsequently, an additional 300 μL acetonitrile and 20 μL dasatinib (200 ng/mL) were added to 100 μL plasma. Then the mixture was vortexed to mix thoroughly for 2 min and centrifuged at 13,000 rpm for 10 min to obtain the final supernatant for UPLC-MS/MS analysis.
IC50 and enzyme kinetic parameters were obtained using GraphPad Prism 8.0 software (GraphPad software Inc., CA, United States). Non-compartmental analysis was performed by using Drugs and Statistics (DAS) software (version 3.0 software, Shanghai University of Traditional Chinese Medicine, China) to obtain pharmacokinetic profiles. Mean plasma concentration-time curves were generated using Origin 8.0, and the parameters were statistically investigated between groups using independent samples t-test by SPSS 24.0 software (SPSS Inc., Chicago, IL, United States). All data were expressed as mean ± SD and p < 0.05 was considered statistically significant.

[2] = test system: flumatinib metabolism in RLM; assay: Inhibition of flumatinib metabolism in rat liver microsome incubation (UPLC-MS/MS); settings: rat, rat liver microsomes
[3] = biological target: flumatinib metabolism in HLM (Homo sapiens, UniProt P08684); assay: Inhibition of flumatinib metabolism in human liver microsome incubation (UPLC-MS/MS)
[4] = test system: rat liver microsomes (RLM); assay: Michaelis-Menten kinetics of flumatinib metabolism in RLM; assay type: in vitro ADME; settings: flumatinib as substrate, RLM 0.4 mg/mL
Method: An in vitro liver microsome incubation system was set up, then the drug was added to the system and incubated for […] as to determine the metabolism of the drug by the microsomes. […] The NADPH-free mixture was preincubated at 37°C for 5 min, followed by the addition of 1 mM NADPH to activate the reaction. The mixture was incubated at 37 °C for 40 min until 20 μL of IS solution (200 ng/mL) and 400 μL of cool acetonitrile were added. It was then centrifuged at 13,000 rpm for 5 min. After that, 100 μL of the supernatant was taken to conduct the analysis by UPLC-MS/MS.

[5] = test system: rat liver microsomes (RLM); assay: Inhibition of flumatinib metabolism in rat liver microsome incubation (UPLC-MS/MS); settings: flumatinib metabolism in RLM
[6] = biological target: flumatinib metabolism in HLM (CYP3A4; ketoconazole as positive control) (Homo sapiens, UniProt P08684); assay: Inhibition of flumatinib metabolism in human liver microsome incubation (UPLC-MS/MS); settings: human liver microsomes, probe flumatinib […] (at Km)
[7] = biological target: recombinant human CYP3A4 (rCYP3A4) (Homo sapiens, UniProt P08684); assay: Inhibition of flumatinib metabolism in recombinant human CYP3A4 incubation (UPLC-MS/MS)
[8] = parameters: method as in McCarthy et al., 2018; settings: co-administration with isavuconazole; ref McCarthy et al., 2018; cited from earlier work
[9] = group A: 60 mg/kg flumatinib dosed orally alone
[10] = group B: 20 mg/kg isavuconazole and 60 mg/kg flumatinib dosed orally
[11] = probe flumatinib (2.17 µM in RLM, at Km)
[12] = with 20 mg/kg isavuconazole vs flumatinib alone

flumatinib metabolism in HLM, sequence (P08684 2-503): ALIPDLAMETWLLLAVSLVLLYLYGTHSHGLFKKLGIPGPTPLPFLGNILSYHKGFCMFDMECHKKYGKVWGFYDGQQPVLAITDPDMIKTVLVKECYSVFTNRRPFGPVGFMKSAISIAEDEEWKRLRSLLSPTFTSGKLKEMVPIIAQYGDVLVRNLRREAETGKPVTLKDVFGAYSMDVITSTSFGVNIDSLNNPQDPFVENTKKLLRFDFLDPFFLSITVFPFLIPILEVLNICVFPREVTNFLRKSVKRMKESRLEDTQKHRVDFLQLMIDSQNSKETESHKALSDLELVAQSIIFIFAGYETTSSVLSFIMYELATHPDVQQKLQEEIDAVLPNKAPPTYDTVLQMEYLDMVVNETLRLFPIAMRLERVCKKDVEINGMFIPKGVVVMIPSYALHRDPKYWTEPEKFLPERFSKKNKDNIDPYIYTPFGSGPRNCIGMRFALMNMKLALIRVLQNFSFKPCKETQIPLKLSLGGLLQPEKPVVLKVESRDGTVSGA
recombinant human CYP3A4 (rCYP3A4), sequence (P08684 whole entry): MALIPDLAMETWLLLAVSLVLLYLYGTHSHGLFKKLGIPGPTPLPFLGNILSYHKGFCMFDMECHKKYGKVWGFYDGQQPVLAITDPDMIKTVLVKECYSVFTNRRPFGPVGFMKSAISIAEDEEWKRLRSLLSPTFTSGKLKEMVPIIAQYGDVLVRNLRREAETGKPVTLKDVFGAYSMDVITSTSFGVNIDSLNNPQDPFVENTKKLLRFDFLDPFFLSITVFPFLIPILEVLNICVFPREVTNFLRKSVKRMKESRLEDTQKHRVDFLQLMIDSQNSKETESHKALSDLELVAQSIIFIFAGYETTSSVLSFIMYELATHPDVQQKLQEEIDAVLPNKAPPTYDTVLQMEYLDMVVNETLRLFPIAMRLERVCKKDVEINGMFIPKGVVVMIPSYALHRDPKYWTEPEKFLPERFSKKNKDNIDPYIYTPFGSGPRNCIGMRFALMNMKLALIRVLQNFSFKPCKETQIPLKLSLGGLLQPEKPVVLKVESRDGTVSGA
flumatinib metabolism in HLM (CYP3A4; ketoconazole as positive control), sequence (P08684 2-503): as the sequence (P08684 2-503) above

SMILES: OC(Cn1cncn1)(Cn1cncn1)c1ccc(F)cc1F [fluconazole]
- IC50 at 40 min [2, 11]: 24.8 µM
- IC50 at 40 min [3]: 92.6 µM

SMILES: CCC(C)n1ncn(-c2ccc(N3CCN(c4ccc(OCC5COC(Cn6cncn6)(c6ccc(Cl)cc6Cl)O5)cc4)CC3)cc2)c1=O (stereo not drawn) [itraconazole]
- IC50 at 40 min [2, 11]: 1.06 µM
- IC50 at 40 min [3]: 11.6 µM

SMILES: CO[C@H]1C[C@@H]2CC[C@@H](C)[C@@](O)(O2)C(=O)C(=O)N2CCCC[C@H]2C(=O)O[C@H]([C@H](C)C[C@@H]2CC[C@@H](O)[C@H](OC)C2)CC(=O)[C@H](C)/C=C(\C)[C@@H](O)[C@@H](OC)C(=O)[C@H](C)C[C@H](C)/C=C/C=C/C=C/1C [sirolimus]
- AUC increase when combined with isavuconazole [8]: 84%

SMILES: C=CC[C@@H]1/C=C(\C)C[C@H](C)C[C@H](OC)[C@H]2O[C@@](O)(C(=O)C(=O)N3CCCC[C@H]3C(=O)O[C@H](/C(C)=C/[C@@H]3CC[C@@H](O)[C@H](OC)C3)[C@H](C)[C@@H](O)CC1=O)[C@H](C)C[C@@H]2OC [tacrolimus]
- AUC increase when combined with isavuconazole [8]: 125%

SMILES: C[C@@H](c1ncncc1F)[C@](O)(Cn1cncn1)c1ccc(F)cc1F [voriconazole]
- IC50 at 40 min [2, 11]: 12.4 µM
- IC50 at 40 min [3]: 325 µM

Now from value to molecule, other results behind:

- AUC(0-inf) [1, 9]: 314 ± 134 ng·h/mL
- AUC(0-t) [1, 9]: 282 ± 135 ng·h/mL
- Cmax [1, 9]: 19.9 ± 32.8 ng/mL
- Tmax [1, 9]: 2.6 ± 1.14 h
- half-life [1, 9]: 5.28 ± 1.24 h
- CL/F [1, 9]: 3940 mL/min/kg
- MRT last [1, 9]: 6.73 ± 1.68 h
- MRT inf [1, 9]: 8.86 ± 1.39 h
- AUC(0-inf) [1, 10]: 395 ± 63.1 ng·h/mL
- AUC(0-t) [1, 10]: 352 ± 49.8 ng·h/mL
- Cmax [1, 10]: 31.9 ± 3.98 ng/mL
- Tmax [1, 10]: 5 ± 2.45 h
- half-life [1, 10]: 7.29 ± 2.01 h
- CL/F [1, 10]: 2580 mL/min/kg
- MRT last [1, 10]: 8.2 ± 0.19 h
- MRT inf [1, 10]: 11.2 ± 1.53 h
SMILES: Cc1ncc(NC(=O)c2ccc(CN3CCNCC3)c(C(F)(F)F)c2)cc1Nc1nccc(-c2cccnc2)n1 [M1, N-desmethyl flumatinib]
- effect of isavuconazole on pharmacokinetic parameters of the metabolite ([1]; combination vs control group): no effect; also recorded: No statistical significances

- Km [4]: 2.2 µM
- AUC(0-inf) [1, 9]: 3040 ± 664 ng·h/mL
- AUC(0-t) [1, 9]: 2750 ± 887 ng·h/mL
- Cmax [1, 9]: 282 ± 36.8 ng/mL
- Tmax [1, 9]: 6 ± 2.74 h
- half-life [1, 9]: 4.04 ± 2.65 h
- CL/F [1, 9]: 340 mL/min/kg
- MRT last [1, 9]: 6.82 ± 1.94 h
- MRT inf [1, 9]: 7.66 ± 2.01 h
- AUC(0-inf) [1, 10]: 5710 ± 744 ng·h/mL
- AUC(0-t) [1, 10]: 4730 ± 1290 ng·h/mL
- Cmax [1, 10]: 481 ± 33.3 ng/mL
- Tmax [1, 10]: 4.4 ± 1.52 h
- half-life [1, 10]: 4.88 ± 2.91 h
- CL/F [1, 10]: 177 mL/min/kg
- MRT last [1, 10]: 6.87 ± 1.33 h
- MRT inf [1, 10]: 9.2 ± 3.59 h
- AUC(0–t), group B relative to group A [1, 12]: 1.72 fold
- AUC(0–∞), group B relative to group A [1, 12]: 1.88 fold
- CLz/F lower than group A [1, 12]: 48%
- Cmax, group B relative to group A [1, 12]: 1.70 fold
SMILES: Cc1ncc(NC(=O)c2ccc(CN3CCN(C)CC3)c(C(F)(F)F)c2)cc1Nc1nccc(-c2cccnc2)n1 [flumatinib]

- IC50 at 40 min ([2]; probe flumatinib 2.17 µM (at Km)): 0.62 µM
- Ki [5]: 1.44 µM
- IC50 at 40 min [6]: 6.66 µM
- α [7]: 0.71
SMILES: C[C@@H](c1nc(-c2ccc(C#N)cc2)cs1)[C@](O)(Cn1cncn1)c1cc(F)ccc1F [isavuconazole]
- Inhibition type [5]: mixed inhibitory mechanisms; also recorded: mixed type; also recorded: a mixture of competitive and non-competitive inhibition; also recorded: Mixed inhibition
- α [5]: 0.52
- Inhibition type [7]: mixed inhibitory mechanisms; also recorded: mixed type; also recorded: a mixture of competitive and non-competitive inhibition; also recorded: Mixed inhibition

- Ki [5]: 0.33 µM
SMILES: CC(=O)N1CCN(c2ccc(OCC3COC(Cn4ccnc4)(c4ccc(Cl)cc4Cl)O3)cc2)CC1 (stereo not drawn) [ketoconazole]
- Inhibition type [5]: mixed inhibitory mechanisms; also recorded: Mixed inhibition

- IC50 at 40 min [2, 11]: 1.53 µM
- IC50 at 40 min ([3]; human liver microsomes, probe flumatinib ([…] in HLM, at Km)): 1.72 µM
SMILES: CC[C@@H]([C@H](C)O)n1ncn(-c2ccc(N3CCN(c4ccc(OC[C@@H]5CO[C@@](Cn6cncn6)(c6ccc(F)cc6F)C5)cc4)CC3)cc2)c1=O [posaconazole]

Reference: paper PMC10192561 (Frontiers in Pharmacology, 2023)
